Measured values published in ChEMBL document CHEMBL5291721, “A preclinical secondary pharmacology resource illuminates target-adverse drug reaction associations of marketed drugs” (Nat Commun, 2023).

Key:
[1] = biological target: T1, Type-2 angiotensin II receptor (Homo sapiens, UniProt P50052); assay type: functional
T1 sequence (P50052 whole entry): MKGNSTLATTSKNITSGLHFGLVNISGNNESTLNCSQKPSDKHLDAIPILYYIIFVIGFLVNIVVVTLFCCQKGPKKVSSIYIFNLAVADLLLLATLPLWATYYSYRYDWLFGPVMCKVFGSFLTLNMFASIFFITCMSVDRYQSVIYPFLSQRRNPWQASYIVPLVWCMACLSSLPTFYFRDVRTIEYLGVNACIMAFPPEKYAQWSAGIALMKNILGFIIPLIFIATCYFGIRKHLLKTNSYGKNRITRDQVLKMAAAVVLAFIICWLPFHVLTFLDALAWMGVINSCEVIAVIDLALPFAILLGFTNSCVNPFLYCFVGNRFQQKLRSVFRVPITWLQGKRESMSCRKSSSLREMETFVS

Cannabinoid receptor 1 = Cannabinoid receptor 1 (Homo sapiens, UniProt P21554); assay type: functional
[2] = biological target: T2, Corticotropin-releasing factor receptor 1 (Homo sapiens, UniProt P34998)
T2 sequence (P34998 whole entry): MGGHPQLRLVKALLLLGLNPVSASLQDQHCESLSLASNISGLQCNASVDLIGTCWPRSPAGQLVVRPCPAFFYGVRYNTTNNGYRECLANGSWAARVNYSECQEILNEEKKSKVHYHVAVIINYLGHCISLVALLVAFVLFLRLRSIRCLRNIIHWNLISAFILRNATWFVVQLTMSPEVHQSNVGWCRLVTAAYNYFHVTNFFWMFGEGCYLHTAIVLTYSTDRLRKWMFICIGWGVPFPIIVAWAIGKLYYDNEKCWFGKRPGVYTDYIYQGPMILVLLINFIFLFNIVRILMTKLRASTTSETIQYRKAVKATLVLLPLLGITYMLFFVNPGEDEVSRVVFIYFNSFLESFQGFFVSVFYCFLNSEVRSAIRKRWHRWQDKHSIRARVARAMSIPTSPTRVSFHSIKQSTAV

[3] = biological target: T3, Corticotropin-releasing factor receptor 2 (Homo sapiens, UniProt Q13324)
T3 sequence (Q13324 whole entry): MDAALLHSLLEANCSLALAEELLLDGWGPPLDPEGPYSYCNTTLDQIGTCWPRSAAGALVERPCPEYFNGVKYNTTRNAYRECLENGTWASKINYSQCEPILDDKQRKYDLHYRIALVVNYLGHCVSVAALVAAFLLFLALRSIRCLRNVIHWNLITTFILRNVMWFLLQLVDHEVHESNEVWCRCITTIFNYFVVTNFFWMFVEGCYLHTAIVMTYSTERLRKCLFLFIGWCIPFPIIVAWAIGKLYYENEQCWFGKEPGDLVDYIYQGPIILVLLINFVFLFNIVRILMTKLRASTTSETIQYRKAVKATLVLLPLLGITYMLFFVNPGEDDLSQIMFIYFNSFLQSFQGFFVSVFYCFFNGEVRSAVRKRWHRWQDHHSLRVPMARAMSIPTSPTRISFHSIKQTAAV

D(4) dopamine receptor = biological target: T4, D(4) dopamine receptor (Homo sapiens, UniProt P21917)
T4 sequence (P21917 whole entry): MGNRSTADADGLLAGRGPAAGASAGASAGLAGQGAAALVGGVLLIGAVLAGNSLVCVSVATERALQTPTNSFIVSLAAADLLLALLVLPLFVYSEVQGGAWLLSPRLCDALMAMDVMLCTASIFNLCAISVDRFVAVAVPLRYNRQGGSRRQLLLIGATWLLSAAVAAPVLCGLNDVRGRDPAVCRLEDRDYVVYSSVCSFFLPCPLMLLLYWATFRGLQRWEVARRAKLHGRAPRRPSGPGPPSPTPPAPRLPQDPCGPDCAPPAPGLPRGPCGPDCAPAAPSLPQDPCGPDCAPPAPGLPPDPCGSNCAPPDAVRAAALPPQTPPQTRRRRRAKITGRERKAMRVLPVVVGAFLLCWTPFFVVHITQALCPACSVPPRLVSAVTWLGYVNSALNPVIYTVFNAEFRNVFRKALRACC

Glucagon receptor = Glucagon receptor (Homo sapiens, UniProt P47871)
[4] = biological target: T5, Gastric inhibitory polypeptide receptor (Homo sapiens, UniProt P48546)
T5 sequence (P48546 whole entry): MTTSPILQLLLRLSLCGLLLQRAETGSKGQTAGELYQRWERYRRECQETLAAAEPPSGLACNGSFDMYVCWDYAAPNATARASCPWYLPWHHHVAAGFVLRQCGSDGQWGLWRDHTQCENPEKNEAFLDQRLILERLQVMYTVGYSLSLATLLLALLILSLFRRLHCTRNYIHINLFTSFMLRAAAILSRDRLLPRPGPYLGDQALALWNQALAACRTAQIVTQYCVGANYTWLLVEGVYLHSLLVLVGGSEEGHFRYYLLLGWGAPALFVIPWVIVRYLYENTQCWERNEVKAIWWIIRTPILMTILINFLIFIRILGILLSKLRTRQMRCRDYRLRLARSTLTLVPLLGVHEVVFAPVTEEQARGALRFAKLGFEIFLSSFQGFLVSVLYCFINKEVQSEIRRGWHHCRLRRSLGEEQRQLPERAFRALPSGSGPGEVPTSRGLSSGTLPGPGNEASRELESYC

Histamine H2 receptor = Histamine H2 receptor (Homo sapiens, UniProt P25021)
[5] = biological target: 5-hydroxytryptamine receptor 6 (Homo sapiens, UniProt P50406)
[6] = biological target: 5-hydroxytryptamine receptor 7 (Homo sapiens, UniProt P34969)
[7] = biological target: T6, Alpha-1A adrenergic receptor (Homo sapiens, UniProt P35348)
T6 sequence (P35348 whole entry): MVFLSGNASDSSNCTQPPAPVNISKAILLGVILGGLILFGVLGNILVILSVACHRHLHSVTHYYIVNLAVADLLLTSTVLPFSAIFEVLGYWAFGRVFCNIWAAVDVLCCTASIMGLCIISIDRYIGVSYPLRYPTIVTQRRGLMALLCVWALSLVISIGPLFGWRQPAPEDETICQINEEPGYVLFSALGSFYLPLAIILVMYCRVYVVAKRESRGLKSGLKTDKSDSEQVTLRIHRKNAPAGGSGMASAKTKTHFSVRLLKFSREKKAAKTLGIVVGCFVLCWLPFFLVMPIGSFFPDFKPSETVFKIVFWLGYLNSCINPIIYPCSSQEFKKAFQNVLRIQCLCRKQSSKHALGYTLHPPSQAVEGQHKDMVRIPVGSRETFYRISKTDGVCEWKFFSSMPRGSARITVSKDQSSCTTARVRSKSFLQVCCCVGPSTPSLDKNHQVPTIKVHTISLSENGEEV

[8] = biological target: Beta-1 adrenergic receptor (Homo sapiens, UniProt P08588); assay type: functional, cell-based
Also: assay procedure not described here.

5-hydroxytryptamine receptor 6, sequence (P50406 whole entry): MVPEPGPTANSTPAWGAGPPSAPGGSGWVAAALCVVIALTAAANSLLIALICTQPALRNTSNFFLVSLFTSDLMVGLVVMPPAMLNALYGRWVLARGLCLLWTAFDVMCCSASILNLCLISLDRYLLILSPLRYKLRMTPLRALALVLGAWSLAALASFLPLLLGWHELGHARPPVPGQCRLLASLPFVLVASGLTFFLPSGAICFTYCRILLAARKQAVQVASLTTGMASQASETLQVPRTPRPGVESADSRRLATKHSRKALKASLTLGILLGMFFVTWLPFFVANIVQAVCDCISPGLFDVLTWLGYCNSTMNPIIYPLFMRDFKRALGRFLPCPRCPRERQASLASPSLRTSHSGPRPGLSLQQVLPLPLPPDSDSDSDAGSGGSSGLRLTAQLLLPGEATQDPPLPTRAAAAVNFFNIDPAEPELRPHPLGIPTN
Beta-1 adrenergic receptor, sequence (P08588 whole entry): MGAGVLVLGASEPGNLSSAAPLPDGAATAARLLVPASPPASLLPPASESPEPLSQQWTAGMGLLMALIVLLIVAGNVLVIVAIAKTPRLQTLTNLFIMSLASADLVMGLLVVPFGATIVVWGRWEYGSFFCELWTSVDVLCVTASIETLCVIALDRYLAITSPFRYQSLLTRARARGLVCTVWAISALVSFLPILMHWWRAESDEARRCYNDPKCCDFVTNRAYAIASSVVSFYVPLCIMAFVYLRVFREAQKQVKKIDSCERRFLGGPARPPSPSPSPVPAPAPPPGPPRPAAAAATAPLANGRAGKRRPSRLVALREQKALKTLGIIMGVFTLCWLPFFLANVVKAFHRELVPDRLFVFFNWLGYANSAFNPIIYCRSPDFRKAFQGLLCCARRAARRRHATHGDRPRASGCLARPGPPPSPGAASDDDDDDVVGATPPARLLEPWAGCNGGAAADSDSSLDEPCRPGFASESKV
Glucagon receptor, sequence (P47871 whole entry): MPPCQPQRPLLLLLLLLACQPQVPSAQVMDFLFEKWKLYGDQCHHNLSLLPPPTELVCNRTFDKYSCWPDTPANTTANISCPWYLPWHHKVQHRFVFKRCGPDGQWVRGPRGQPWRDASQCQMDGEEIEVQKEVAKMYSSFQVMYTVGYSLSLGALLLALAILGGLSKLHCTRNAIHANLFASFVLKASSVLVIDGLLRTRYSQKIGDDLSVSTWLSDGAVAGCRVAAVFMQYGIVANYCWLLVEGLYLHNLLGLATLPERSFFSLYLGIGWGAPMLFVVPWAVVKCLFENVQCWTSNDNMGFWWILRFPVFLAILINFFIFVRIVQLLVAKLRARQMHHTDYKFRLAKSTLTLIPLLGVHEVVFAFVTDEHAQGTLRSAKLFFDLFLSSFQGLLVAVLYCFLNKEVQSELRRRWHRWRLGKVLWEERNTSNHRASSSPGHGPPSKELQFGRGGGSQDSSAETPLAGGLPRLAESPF
5-hydroxytryptamine receptor 7, sequence (P34969 whole entry): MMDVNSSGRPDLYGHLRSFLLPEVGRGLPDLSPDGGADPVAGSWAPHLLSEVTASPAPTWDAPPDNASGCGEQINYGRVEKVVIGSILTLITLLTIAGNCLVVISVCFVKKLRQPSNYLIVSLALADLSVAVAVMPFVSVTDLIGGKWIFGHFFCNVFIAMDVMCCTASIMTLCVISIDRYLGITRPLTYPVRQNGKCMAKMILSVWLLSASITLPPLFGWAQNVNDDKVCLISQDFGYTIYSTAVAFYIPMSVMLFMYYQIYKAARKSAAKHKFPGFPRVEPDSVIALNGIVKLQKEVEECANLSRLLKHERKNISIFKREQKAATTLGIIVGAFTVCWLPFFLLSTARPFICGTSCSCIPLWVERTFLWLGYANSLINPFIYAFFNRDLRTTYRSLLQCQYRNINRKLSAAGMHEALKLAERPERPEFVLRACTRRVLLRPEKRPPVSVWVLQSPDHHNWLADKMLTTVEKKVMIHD
Cannabinoid receptor 1, sequence (P21554 whole entry): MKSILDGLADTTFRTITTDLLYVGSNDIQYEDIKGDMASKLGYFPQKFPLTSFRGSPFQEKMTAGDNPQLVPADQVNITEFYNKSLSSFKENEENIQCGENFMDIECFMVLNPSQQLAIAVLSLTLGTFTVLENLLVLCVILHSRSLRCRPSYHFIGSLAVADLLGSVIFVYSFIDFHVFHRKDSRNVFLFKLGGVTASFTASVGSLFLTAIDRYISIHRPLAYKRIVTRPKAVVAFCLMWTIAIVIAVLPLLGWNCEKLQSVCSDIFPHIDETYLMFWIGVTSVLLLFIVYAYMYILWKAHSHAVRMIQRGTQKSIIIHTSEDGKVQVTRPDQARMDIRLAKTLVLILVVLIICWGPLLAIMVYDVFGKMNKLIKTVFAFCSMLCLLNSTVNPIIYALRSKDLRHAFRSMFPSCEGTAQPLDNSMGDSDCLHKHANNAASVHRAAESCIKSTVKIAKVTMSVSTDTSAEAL
Histamine H2 receptor, sequence (P25021 whole entry): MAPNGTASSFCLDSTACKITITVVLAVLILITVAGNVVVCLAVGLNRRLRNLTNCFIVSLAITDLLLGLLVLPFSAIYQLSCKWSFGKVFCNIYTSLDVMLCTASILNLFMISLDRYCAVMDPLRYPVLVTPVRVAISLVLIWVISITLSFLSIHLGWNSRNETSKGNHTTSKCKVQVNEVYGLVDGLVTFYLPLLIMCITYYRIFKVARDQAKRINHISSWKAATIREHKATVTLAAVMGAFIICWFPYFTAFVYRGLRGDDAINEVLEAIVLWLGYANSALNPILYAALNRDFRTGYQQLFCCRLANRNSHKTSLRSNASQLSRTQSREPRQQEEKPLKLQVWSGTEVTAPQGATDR

Row | SMILES | AC50 [8] | AC50 [1] | AC50 (Cannabinoid receptor 1) | AC50 [2] | AC50 [3] | AC50 (D(4) dopamine receptor) | AC50 (Glucagon receptor) | AC50 [4] | AC50 (Histamine H2 receptor) | AC50 [5] | AC50 [6] | AC50 [7]
1 | N=C(N)NC(=O)c1nc(Cl)c(N)nc1N [AMILORIDE] | – | > 100 µM | > 10 µM | > 30 µM | > 30 µM | > 10 µM | > 30 µM | > 30 µM | > 10 µM | > 10 µM | > 10 µM | > 10 µM
2 | CC(C)Cc1ccc(C(C)C(=O)OCc2ccccn2)cc1 (centres undefined) [IBUPROFEN PICONOL] | – | > 100 µM | – | – | – | – | – | – | – | – | – | –
3 | C[C@]12C=CC(=O)C=C1CC[C@@H]1[C@@H]2[C@@H](O)C[C@@]2(C)[C@H]1CC[C@]2(O)C(=O)CO [PREDNISOLONE] | – | – | – | > 30 µM | > 30 µM | – | > 30 µM | > 30 µM | – | – | – | –
4 | Cc1ccc(O)c([C@H](CCN(C(C)C)C(C)C)c2ccccc2)c1 [TOLTERODINE] | – | – | > 10 µM | – | – | > 10 µM | – | – | 3.2 µM | > 10 µM | > 10 µM | > 10 µM

Second part, led by results:

Row | AC50 [8] | SMILES | AC50 [1] | AC50 (Cannabinoid receptor 1) | AC50 [2] | AC50 [3] | AC50 (D(4) dopamine receptor) | AC50 (Glucagon receptor) | AC50 [4] | AC50 (Histamine H2 receptor) | AC50 [5] | AC50 [6] | AC50 [7]
5 | > 30 µM | C[C@]12CCC(=O)C=C1C=C[C@@H]1[C@@H]2CC[C@@]2(C)[C@H]1CC[C@@]21CCC(=O)O1 [CANRENONE] | – | – | – | – | – | – | – | – | – | – | –
6 | > 30 µM | CC(C)(Oc1ccc(Cl)cc1)C(=O)OCCOC(=O)c1cccnc1 [ETOFIBRATE] | – | – | – | – | – | – | – | – | – | – | –
